Data published in paper PMC10343205, “Multidirectional Effects of Red Clover (Trifolium pratense L.) in Support of Menopause Therapy” (Molecules, 2023).
One block for each compound: values may come before it.

Tests used:
[1] = CUPRAC assay (antioxidant activity); conditions: standard substance
Protocol: To create the CUPRAC reagent, a conical flask wrapped in aluminum foil was used. Equal volumes of a 7.5 mM neocuproine solution in 96% ethanol, a 10 mM aqueous copper chloride solution and an ammonium acetate buffer solution (pH = 7) were added to the flask. In the 96-well plate, 50.0 µL of the test sample and 150.0 µL of the CUPRAC reagent solution were combined. The blank consisted of a mixture of the CUPRAC reagent and the solvent used for extraction. The assay was replicated six times. The plate was covered with aluminum foil, shaken for 5 min at 25 °C and then incubated at room temperature for 25 min. The absorbance was measured at 450 nm using a plate reader (Multiskan GO 1510, Thermo Fisher Scientific, Vantaa, Finland). […] This value was determined using a polynomial trend line.

[2] = DPPH assay (free radical scavenging); conditions: standard substance
Protocol: In summary, a 96-well plate was used for the assay. Each well contained 25.0 μL of the test sample and 175.0 μL of a DPPH radical solution (3.9 mg/50 mL) in methanol. The control sample consisted of the DPPH radical solution and the solvent used for extraction, while the blank represented the absorbance value obtained from combining 25.0 μL of the extraction solvent with 175.0 μL of the solvent used to dissolve the DPPH radical (methanol). This procedure was repeated six times. The plate was shaken for 5 min at 25 °C and then incubated for 25 min at room temperature. The absorbance was measured at 517 nm using a plate reader (Multiskan GO 1510, Thermo Fisher Scientific, Vantaa, Finland). The free radical scavenging capacity (%) of the test extracts and the standard substance was calculated using the following equation:(1) […] activity%=A0-A1/A0×100% where A0 is the absorbance of the control, and A1 is the absorbance of the tested sample.

collagenase = test: Collagenase inhibition assay; format: biochemical; conditions: positive control
Protocol: The collagenase inhibitory activity of each sample was determined in vitro according to Widodo et al. with some modifications. In summary, 15.0 μL of enzyme, 60 μL of tricine buffer (pH 7.5) and 30 μL of extracts (50 mg/mL) were mixed and incubated at 37 °C for 20 min. Next, 20 μL of FALGPA (0.5 mM) was added to the mixture, and the absorbance was immediately measured at 325 nm using the plate reader (Multiskan GO 1510, Thermo Fisher Scientific, Vantaa, Finland). The absorbance was measured again after 20 min of incubation at 37 °C following the addition of the substrate. A control sample containing only the solvent used instead of the extract was performed, and the results were reduced by the value of the blank representing the enzyme-free sample. The positive control was a sample containing a solution of epigallocatechin gallate instead of the extract tested. The collagenase inhibition rate (presented for the final concentration of substance in enzymatic reaction) expressed as a percentage of inhibition was calculated using Formula (2).

[3] = Parallel artificial membrane permeability assay (PAMPA-GIT, PAMPA-BBB, PAMPA-SKIN); format: in vitro ADME; conditions: isoflavones from red clover extracts, donor 12.5 mg/mL, pH 7.4, 4 h at 37 °C, BBB and SKIN membranes; for Papp at 4 h, 12.5 mg/mL: PAMPA, read-out: Apparent permeability coefficient (Papp)
Protocol: Then, 200 μL of the donor solution was added to the donor wells. Subsequently, each filter membrane of the top plate was coated with a suitable lipid solution, i.e., 5 μL BBB, GIT or preincubated with hydration buffer 24 h earlier for SKIN assay (Pion Inc., Billerica, MA, USA), and the acceptor well was filled with 200 μL of acceptor fluid. The acceptor plate and the donor plate were coupled together and incubated for 4 h at 37 °C. After incubation, the plates were separated, and the concentrations of compounds that crossed the membrane were determined using HPLC. To calculate Papp, the following equation was used:(3) Papp=−ln1−CA/Cequilibrium/S×1/VD+1/VA×t where Papp—effective permeability coefficient (cm/s), VD—donor volume, VA—acceptor volume, Cequilibrium—equilibrium concentration, S—membrane area, and t—incubation time (in seconds).
Samples were analyzed in triplicate.

[4] = parameters: method as in PMID 29504397; conditions: rat study; cited from earlier work

Compound: O=C1O[C@H]([C@@H](O)CO)C(O)=C1O [Ascorbic acid]
- CUPRAC IC50 [1]: 73 ± 3 µg/mL
- DPPH IC50 [2]: 68 ± 5 µg/mL

Compound: O=C(O[C@@H]1Cc2c(O)cc(O)cc2O[C@@H]1c1cc(O)c(O)c(O)c1)c1cc(O)c(O)c(O)c1 [EGCG, epigallocatechin gallate]
- Collagenase inhibition IC50 (collagenase): IC50 = 0.666 ± 0.007 mg/ml

Compound: COc1ccc(-c2coc3cc(O)cc(O)c3c2=O)cc1 [biochanin A]
- Papp at 4 h, 12.5 mg/mL [3]: > 1 ×10⁻⁶ cm/s

Continued, in another order:

- Papp at 4 h, 12.5 mg/mL [3]: > 1 ×10⁻⁶ cm/s
Compound: COc1ccc(-c2coc3cc(O)ccc3c2=O)cc1 [formononetin]
- bioavailability [4]: 21.8%

- Apparent permeability coefficient (Papp) [3]: did not show such permeability
Compound: O=c1c(-c2ccc(O)cc2)coc2cc(O)cc(O)c12 [genistein]
